The text below walks through data of patent publication US4960900A, “Oxyimino derivatives of thiazole, method of preparation and use in therapy” (priority 1987, dated 1990).

Entries after “also recorded” stand apart in the source; their conditions may differ. Read-outs that look alike come from different tables or passages of the source.

The conditions of data set [1]: prior art documents; cited from earlier work.
The conditions of data set [2]: prior art documents; cited from earlier work. This is another data set of the same source.
Data set [3] relates to convulsions induced by pentetrazole (PTZ). Put plainly: Anticonvulsant properties: convulsions induced by pentetrazole (PTZ), oral, mice. To be noted: per os, male mice, 30 min after administration, pentetrazole 125 mg/kg i.p.; for ED50 in respect of convulsions induced by PTZ: 30 min. Format: in vivo.
The test system of a further data set is convulsive seizures. Put plainly: Anticonvulsant properties in mice, overall statement (PTZ and MCE). The note with it: for most effective products according to the invention: in view of protection and therapeutic indices, Table IV. The class given is in vivo, male mice. As to the method:
The anticonvulsant properties were investigated on male mice, thirty minutes after the oral administration of the substances to be studied, by the induction of convulsive seizures.
These seizures are caused either by the intraperitoneal injection of pentetrazole (125 mg/kg) or by electrical stimulation of the cornea (supra-maximal electroshock, abbreviated to MCE).
The results, expressed in the form of the 50% effective dose (ED50) per os (dose protecting 50% of the animals), are collated in Table III below.

The nature of data set [4]: in vivo. The class given is in vivo. The note with it: mouse, in vivo, po. As for the experimental part:
(§1) The neurotoxic properties were assessed on male mice by the so-called "Rota-rod" test carried out thirty minutes after the oral administration of the substances to be studied. The animals (divided into groups each containing ten male mice per dose and per product) are installed on the rod and their fall is observed over the next two minutes.
(§2) The results obtained are expressed in the form of the 50% neurotoxic dose (TD50) per os, which is the dose causing 50% of the animals to fall.
(§3) Protection index: TD50 per os/ED50 per os
(§4) *dose determined per os on groups each containing ten male mice.

Data set [5] has as its system convulsions induced by supramaximal electroshock (MCE). As to the kind of experiment: Anticonvulsant properties: convulsions induced by supramaximal electroshock (MCE), oral, mice. The class given is in vivo. The note with it: per os, male mice, 30 min after administration; for ED50 in respect of convulsions induced by MCE: 30 min. On the technique in general: The maximal electroshock test induces tonic seizures with an electrical stimulus.
Excerpt: MCE: supramaximal electroshock;
*: ED50 in mg/kg, determined per os on groups each containing ten

Data set [6] in a line: in vivo. The note with it: mouse, in vivo, po; for selectivity ratio: LD50 per os/ED50 per os. As to the method: (§5) The toxicity of the products to be studied was investigated by the oral administration, using an esophageal tube, of each of the said products to male mice with a body weight of 18 to 22 g, divided into groups each containing 10 to 20 animals. The mortality was recorded over a 14-day period.
(§6) The results obtained, which are expressed in the form of LD50 in mg/kg, are collated in Table II below.

Data set [7] relates to male mice. Put plainly: in vivo. As to the method:
as §5, §6

The subject of data set [8] is male mice. As to the kind of experiment: in vivo. The class given is in vivo. The note with it: mouse, in vivo. As to the method:
as §1, §2, §3, §4

As for `Cc1ncsc1C(C)O` (centres unmarked) [1-(4-methylthiazol-5-yl)ethanol], in [1], the “anticonvulsant properties (prior art)” value was “possesses anticonvulsant properties; also recorded: is an anticonvulsant”. In addition, the “antihypoxic properties (prior art)” value in data set [2] was “devoid of beneficial antihypoxic effects”.

`Cc1ncsc1C(C)(C)O` [2-(4-methylthiazol-5-yl)propan-2-ol]: the “anticonvulsant properties (prior art)” value in data set [1] was “has anticonvulsant and antihypoxic properties”. Besides, the “antihypoxic properties (prior art)” value in data set [2] is “has anticonvulsant and antihypoxic properties”.

With `Cc1ncsc1CO` [5-hydroxymethyl-4-methylthiazole], the “anticonvulsant properties (prior art)” value in data set [1] is “devoid of anticonvulsant effects”.

By ED50 is commonly meant the dose at which the effect has come halfway, by size or by number of responders. What is called LD50 is the dose expected to kill half of the subjects tested. A high value points to a less toxic substance. Regarding `CO/N=C(\C)c1scnc1C` [Ex. 3, 5-(1-methoxyiminoethyl)-4-methylthiazole], the ED50 in data set [3] (Mus musculus, po, 0.5 h, read-out: ED50 in respect of convulsions induced by PTZ) turned out to be 91 mg/kg; in data set [5] (Mus musculus, po, 0.5 h, read-out: ED50 in respect of convulsions induced by MCE), 97 mg/kg. For the same molecule, the “activity as an anticonvulsant” value in the data set with convulsive seizures (pure E isomer versus mixture E/Z=91/9) is listed as “less active than the corresponding mixture E/Z=91/9”. For the same molecule, the selectivity ratio in the data set “in vivo [4]” (Protection index MCE) was determined as 3; in “in vivo [4]” (Protection index PTZ), 3.2; in the data set “in vivo [6]” (Therapeutic index MCE, MCE), 5.9; in the data set “in vivo [6]” (Therapeutic index PTZ, PTZ), 6.3. In the data set “in vivo [4]” (TD50), this molecule came in with a TD50 at 0.5 h of 290 mg/kg. Moreover, the LD50 at 336 h in the data set “in vivo [6]” (LD50, Table II, male mice, 14 days) stood at 570 mg/kg; in the data set “in vivo [6]” (LD50, Table IV, per os, male mice) it was 570 mg/kg.

Consider `CC(=NOCc1ccccc1)c1scnc1C` [Ex. 11, 5-(1-benzyloxyiminoethyl)-4-methylthiazole], for which the “ED50 in respect of convulsions induced by PTZ” value in data set [3] amounted to 46 mg/kg. Besides, in the data set with convulsive seizures, the “most effective products according to the invention” value was “most effective”. In addition, the selectivity ratio in “in vivo [4]” (TD50 per os/ED50 per os, MCE, read-out: Protection index MCE) is 12.8; in the data set “in vivo [4]” (TD50 per os/ED50 per os, PTZ, read-out: Protection index PTZ), 21.7; in “in vivo [6]” (Therapeutic index MCE, MCE), more than 12.8. The TD50 at 0.5 h in “in vivo [4]” (Rota-rod, per os, male mice, 30 min after administration, read-out: TD50) was found to be 1000 mg/kg. In addition, in [5], the “ED50 in respect of convulsions induced by MCE” value is 78 mg/kg. Besides, the “Therapeutic index PTZ” value in the data set on male mice [7] (LD50 per os/ED50 per os) is given as more than 21.7. Further, the LD50 with male mice [7] (Table IV, per os, male mice, 20160 min) is more than 1000 mg/kg.

Consider `CC(=NOCc1ccccc1)c1scnc1C` [Ex. 12], for which, in data set [3], the “ED50 in respect of convulsions induced by PTZ” value was 100 mg/kg. Further, the “most effective products according to the invention” value in the data set with convulsive seizures is “most effective”. The values for the selectivity ratio in the data set “in vivo [4]” (Protection index MCE) and in “in vivo [4]” (Protection index PTZ) were 8.6 and 13.5, respectively. In “in vivo [4]” (TD50), this molecule had a TD50 at 0.5 h of 1350 mg/kg. In addition, the “protection indices compared with the reference products” value with male mice [8] was “better than those of the reference products”. In data set [5], the “ED50 in respect of convulsions induced by MCE” value amounted to 157 mg/kg. Moreover, the LD50 at 336 h in “in vivo [6]” (LD50) is more than 1000 mg/kg. Besides, the “Therapeutic index MCE” value with male mice [7] (LD50 per os/ED50 per os, MCE) is reported as more than 6.4. The “Therapeutic index PTZ” value in the data set with male mice [7] (LD50 per os/ED50 per os) is more than 10.0. Also, the “therapeutic indices compared with the reference products” value in the data set on male mice [7] (mouse, in vivo) is on record as “better than those of the reference products”.
